# Measured values: patent US20130012466A1 (priority 2006, published 2013)
# Like-named read-outs stand apart in the source and are kept apart here.
# Key:
# SK-OV-3 = test: Cytotoxicity assay (cell titer-glo and calcein AM), SK-OV-3
# Hep3B = test: Cytotoxicity assay (cell titer-glo and calcein AM), Hep3B
# NCI-H460 = test: Cytotoxicity assay (cell titer-glo and calcein AM), NCI-H460
# A549 cells [1] = test: Drug combination study with colchicine (Chou-Talalay combination index); details: for plus colchicine, mean CI / plus colchicine, median CI: combination index, colchicine held at IC10, A549 cells; for interaction with colchicine: drug combination, A549 cells, Chou-Talalay
# [2] = system: mouse mammary normal epithelial control cell line; test: Cytotoxicity assay, normal control cell line
# MCF7 = test: Cytotoxicity assay (cell titer-glo and calcein AM), MCF7
# ADR-RES = test: Cytotoxicity assay (cell titer-glo and calcein AM), ADR-RES; details: NCI/ADR RES, % error in parentheses
# Du145 = test: Cytotoxicity assay (cell titer-glo and calcein AM), Du145
# tubulin = test: In vitro tubulin polymerization assay (fluorescence-based); type: biochemical; details: for effect on tubulin polymerization / microtubules: tested in duplicate on at least two days
# Method: In vitro tubulin polymerization assays were performed using a fluorescence-based assay (Cytoskeleton, Inc., Denver, Colo.). […] Aliquots (5 μL) of each compound or control were added to a 96-well black half area plate (Corning Costar, Inc.) pre-warmed to 37° C. Cold tubulin reaction mix (50 μL 1× Buffer—80 mM piperazine-N,N′-bis[2-ethanesulfonic acid]sequisodium salt; 2.0 mM magnesium chloride; 0.5 mM ethylene glycol-bis[β-amino-ethyl ether) N,N,N′,N′-tetra-acetic acid, pH 6.9, 10 μM fluorescent reporter; 20% tubulin glycerol buffer—80 mM piperazine-N,N′-bis[2-ethanesulfonic acid] sequisodium salt; 2.0 mM magnesium chloride; 0.5 mM ethylene glycol-bis(β-amino-ethyl ether) N,N,N′,N′-tetra-acetic acid, 60% v/v glycerol, pH 6.9, 1 mM GTP; and 2 mg mL^−1 tubulin stock) was added to each of the compounds. […] Polymerization curves were generated in Excel after background correction and the effects of test compounds were compared to controls.
# Library members that accelerated the rate of tubulin polymerization were deemed microtubule stabilizers, whereas compounds that decelerated the rate of tubulin polymerization were deemed microtubule de-stabilizers.
# A549 = test: Cytotoxicity assay (cell titer-glo and calcein AM), A549
# SF-268 = test: Cytotoxicity assay (cell titer-glo and calcein AM), SF-268
# A549 cells [3] = test: Drug combination study with paclitaxel (Chou-Talalay combination index); details: for plus paclitaxel, mean CI / plus paclitaxel, median CI: combination index, paclitaxel held at IC10, A549 cells; for interaction with paclitaxel/taxol: drug combination, A549 cells, Chou-Talalay; for synergy (paclitaxel): combination index class, combination with paclitaxel, Chou-Talalay method;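 for all read-outs here: combination indexes averaged only over points where fraction affected exceeded 0.2, with each synergy experiment repeated at least three times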
# [4] = read-out: Cytotoxicity IC50, SK-OV-3, CTG, SK-OV-3, CTG (cell titer-glo) readout, % error in parentheses
# [5] = read-out: Cytotoxicity IC50, SK-OV-3, calcein, SK-OV-3, calcein AM readout, % error in parentheses
# [6] = read-out: Cytotoxicity IC50, Hep 3B, CTG, Hep 3B, CTG (cell titer-glo) readout, % error in parentheses
# [7] = read-out: Cytotoxicity IC50, Hep 3B, calcein, Hep 3B, calcein AM readout, % error in parentheses
# [8] = read-out: Cytotoxicity IC50, NCI-H460, CTG, NCI-H460, CTG (cell titer-glo) readout, % error in parentheses
# [9] = read-out: Cytotoxicity IC50, NCI-H460, calcein, NCI-H460, calcein AM readout, % error in parentheses
# [10] = read-out: Cytotoxicity IC50, NmuMG, CTG, CTG (cell titer-glo) readout, % error in parentheses
# [11] = read-out: Cytotoxicity IC50, NmuMG, calcein, calcein AM readout, % error in parentheses
# [12] = read-out: Cytotoxicity IC50, MCF7, CTG, CTG (cell titer-glo) readout, % error in parentheses
# [13] = read-out: Cytotoxicity IC50, MCF7, calcein, calcein AM readout, % error in parentheses
# [14] = read-out: Cytotoxicity IC50, NCI/ADR RES, CTG, CTG (cell titer-glo) readout
# [15] = read-out: Cytotoxicity IC50, NCI/ADR RES, calcein, calcein AM readout
# [16] = read-out: Cytotoxicity IC50, Du145, calcein, Du145, calcein AM readout, % error in parentheses
# [17] = read-out: Cytotoxicity IC50, A549, CTG, A549, CTG (cell titer-glo) readout, % error in parentheses
# [18] = read-out: Cytotoxicity IC50, A549, calcein, A549, calcein AM readout, % error in parentheses
# [19] = read-out: Cytotoxicity IC50, SF-268, CTG, SF-268, CTG (cell titer-glo) readout, % error in parentheses
# [20] = read-out: Cytotoxicity IC50, SF-268, calcein, SF-268, calcein AM readout, % error in parentheses
# [21] = read-out: Cytotoxicity IC50, Du145, CTG, Du145, CTG (cell titer-glo) readout, % error in parentheses
Compound,IC50 (SK-OV-3; [4]) [µM],IC50 (SK-OV-3; [5]) [µM],IC50 (Hep3B; [6]) [µM],IC50 (Hep3B; [7]) [µM],IC50 (NCI-H460; [8]) [µM],IC50 (NCI-H460; [9]) [µM],"IC50 [2, 10] [µM]","IC50 [2, 11] [µM]",IC50 (MCF7; [12]) [µM],IC50 (MCF7; [13]) [µM],IC50 (ADR-RES; [14]) [µM],IC50 (ADR-RES; [15]) [µM],IC50 (Du145; [16]) [µM],effect on tubulin polymerization / microtubules (tubulin),IC50 (A549; [17]) [µM],IC50 (A549; [18]) [µM],IC50 (SF-268; [19]) [µM],IC50 (SF-268; [20]) [µM],"plus paclitaxel, mean CI (A549 cells [3])",IC50 (Du145; [21]) [µM],other results
"COc1cc2c(c(OC)c1OC)-c1ccc(OC)c(=O)cc1[C@@H](NC(=O)CN(OC)[C@@H]1O[C@H](CO)[C@@H](O)[C@H](O)[C@H]1F)CC2 [Col34, 2-fluoro-2-deoxy-D-glucoside]",0.325,0.8,0.545,1.17,> 1,> 1,0.451,0.76,0.242,0.254,> 1,> 1,0.328,destabilized microtubules,0.545,0.778,0.281,0.452,0.18,,"plus colchicine, mean CI (A549 cells [1]): 31.49; plus colchicine, median CI (A549 cells [1]): 21.50; interaction with colchicine (A549 cells [1]): strong antagonism; plus paclitaxel, median CI (A549 cells [3]): 0.12; interaction with paclitaxel/taxol (A549 cells [3]): strong synergism"
"COc1cc2c(c(OC)c1OC)-c1ccc(OC)c(=O)cc1[C@@H](NC(=O)CN(OC)[C@@H]1O[C@H](CO)[C@@H](O[C@H]3O[C@H](CO)[C@@H](O)[C@H](O)[C@H]3O)[C@H](O)[C@H]1O)CC2 [Col38, D-maltoside]",0.252,0.316,0.229,1.39,0.112,0.487,0.976,0.875,0.291,,0.199,0.173,0.342,destabilized microtubules,0.244,0.508,0.16,0.319,,0.215,
"COc1cc2c(c(OC)c1OC)-c1ccc(OC)c(=O)cc1[C@@H](NC(C)=O)CC2 [colchicine, reference compound]",,,,,,,,,,,,,,,,,,,0.77,,"synergy (paclitaxel) (A549 cells [3]): ++ (moderate synergism, Cl 0.7-0.85); plus paclitaxel, median CI (A549 cells [3]): 0.18"
"COc1cc2c(c(OC)c1OC)-c1ccc(OC)c(=O)cc1[C@@H](N)CC2 [Col 6, deacetyl colchicine]",,,,,,,,,,,,,,,,,,,0.57,,"plus colchicine, mean CI (A549 cells [1]): 2.32; plus colchicine, median CI (A549 cells [1]): 1.96; interaction with colchicine (A549 cells [1]): antagonism; plus paclitaxel, median CI (A549 cells [3]): 0.20; interaction with paclitaxel/taxol (A549 cells [3]): synergy"
"COc1cccc2c1C(=O)c1c(O)c3c(c(O)c1C2=O)C[C@@](O)(C(=O)CO)C[C@@H]3O[C@H]1C[C@H](N)[C@H](O)[C@H](C)O1 [doxorubicin, reference compound]",,,,,,,,,,,,,,no apparent effect,,,,,,,"IC50 (SK-OV-3; Homo sapiens, SK-OV-3, read-out: IC50 (SK-OV-3)): 0.621 µM; IC50 (Hep3B; Homo sapiens, Hep3B, read-out: IC50 (Hep3B)): 0.268 µM; IC50 (NCI-H460; Homo sapiens, NCI-H460, read-out: IC50 (NCI-H460)): 1 µM; IC50 (Du145; Homo sapiens, DU-145, read-out: IC50 (Du145)): 0.339 µM; tubulin polymeriz. (tubulin): no effect; IC50 (A549; Homo sapiens, A549, read-out: IC50 (A549)): 0.77 µM; IC50 (SF-268; Homo sapiens, SF-268, read-out: IC50 (SF-268)): 0.385 µM"
19-(N-METHOXYAMINO-N-22-DEOXY-D-RIBOSYL)COLCHICINE [Col21],,,,,,,,,,,,,,,,,,,4.96,,"plus colchicine, mean CI (A549 cells [1]): 1.01; plus colchicine, median CI (A549 cells [1]): 0.64; synergy (paclitaxel) (A549 cells [3]): — (moderate antagonism, Cl 1.2-1.45); plus paclitaxel, median CI (A549 cells [3]): 2.50"
6-deoxy-6-acyl-D-galactoside [Col56],0.901,1.18,1.48,2.23,1.55,1.09,1.52,1.49,3.13,0.812,1.16,0.994,1.09,no apparent effect,1.91,2.09,1.76,> 1,,1.15,tubulin polymeriz. (tubulin): no effect
"COc1cc2c(c(OC)c1OC)-c1ccc(OC)c(=O)cc1[C@@H](NC(=O)CN(OC)[C@@H]1O[C@H](C(=O)O)[C@H](O)[C@H](O)[C@H]1O)CC2 [Col18, D-Galacturonoside]",1.08,1.07,2,2.27,0.993,1.13,2.09,2.62,1.16,1.49,1.11,0.828,1.19,no effect,1.1,1.07,0.834,1.11,,1.12,
"COc1cc2c(c(OC)c1OC)-c1ccc(OC)c(=O)cc1[C@@H](NC(=O)CN(OC)[C@@H]1O[C@H](CO)[C@@H](N=[N+]=[N-])[C@H](O)[C@H]1O)CC2 [Col44, 4-deoxy-4-azido-D-glucoside]",> 1,> 1,0.453,0.671,> 1,> 1,1.43,3.66,0.596,0.676,> 1,> 1,> 1,destabilized microtubules,0.315,0.649,0.229,0.412,,> 1,
"COc1cc2c(c(OC)c1OC)-c1ccc(OC)c(=O)cc1[C@@H](NC(=O)CN(OC)[C@@H]1O[C@H](C)[C@@H](O)[C@H](O)[C@H]1O)CC2 [Col2, 6-deoxy-D-glucoside]",9.86,> 10,> 10,> 10,7.24,5.42,> 10,> 10,4.86,4.77,> 10,> 10,> 7.79,,8.78,7.94,8.43,> 10,,> 10,
